Values of other authors as cited in patent publication US6054466A, “Inhibitors of farnesyl-protein transferase” (Merck & Co., Inc., priority 1998, dated 2000).

Key:
[1] = tested on: farnesyl-protein transferase; conditions: via HMG-CoA reductase inhibition
[2] = tested on: Ras processing; conditions: by inhibiting the rate-limiting step in the isoprenoid biosynthetic pathway

Compound: CC[C@H](C)C(=O)O[C@H]1C[C@@H](C)C=C2C=C[C@H](C)[C@H](CC[C@@H]3C[C@@H](O)CC(=O)O3)[C@H]21 [lovastatin]
- Indirect inhibition of farnesyl-protein transferase in vivo [1]: Indirect inhibition
- Block of Ras processing in cells [2]: blocks Ras processing in cells

Compound: CC[C@H](C)C(=O)O[C@H]1CCC=C2C=C[C@H](C)[C@H](CC[C@@H]3C[C@@H](O)CC(=O)O3)[C@H]21 [compactin]
- Indirect inhibition of farnesyl-protein transferase in vivo [1]: Indirect inhibition
